Where two headings read alike, the source gives them in different places.
Columns and labels:
Test in all cases: Antibacterial screening, agar disc-diffusion method
Format in all cases: cell-based
Staphylococcus aureus = details: Gram positive, 6 mm disc, 10 μL of 10 mg/mL in DMSO, DMSO zone subtracted
Protocol: (§1) The antibacterial properties of the synthesized compound 2-amino-4-(4-bromophenyl)-6-methoxypyridine-3,5-dicarbonitrile were studied by the method of agar disc-diffusion method. Sterilized filter papers (6 mm in diameter) were wetted with 10 μL of a solution of 2-amino-4-(4-bromophenyl)-6-methoxypyridine-3,5-dicarbonitrile (3) to be tested, containing 10 mg/mL in DMSO, and the discs were allowed to air dry. The discs were then placed onto the surface of agar plates (nutrient agar for bacteria) seeded with the test organism. Each plate contained 15 mL of the agar medium, previously seeded with 0.2 mL of the broth culture of each organism pregrown for 18 hours. The inhibition zones was measured in mm. Discs impregnated with DMSO were used as a control, and its inhibition zone was subtracted from the tested compound actual inhibition zone. […] Their antibacterial screened against gram positive bacteria namely Bacillus cereus and Staphylococcus aureus and gram-negative bacterial strains namely Pseudomonas aeruginosa and Escherichia coli.

Bacillus Cereus = details: Gram positive, 6 mm disc, 10 μL of 10 mg/mL in DMSO, DMSO zone subtracted
Protocol: as §1

Pseudomonas aeruginosa = details: Gram negative, 6 mm disc, 10 μL of 10 mg/mL in DMSO, DMSO zone subtracted
Protocol: as §1

Escherichia coli = details: Gram negative, 6 mm disc, 10 μL of 10 mg/mL in DMSO, DMSO zone subtracted
Protocol: as §1

Molecule `COc1nc(N)c(C#N)c(-c2ccc(Br)cc2)c1C#N` [Compound 3, 2-amino-4-(4-bromophenyl)-6-methoxypyridine-3,5-dicarbonitrile] has a zone of inhibition at 10000 µg/mL (Staphylococcus aureus; sub-column A (not defined), read-out: inhibition zone, Staphylococcus aureus, A) of 18 mm, a zone of inhibition at 10000 µg/mL (Staphylococcus aureus; sub-column B (not defined), read-out: inhibition zone, Staphylococcus aureus, B) of 27 mm and a zone of inhibition at 10000 µg/mL (Staphylococcus aureus; sub-column C (not defined), read-out: inhibition zone, Staphylococcus aureus, C) of 33 mm. The zone of inhibition at 10000 µg/mL (Bacillus Cereus; sub-column A (not defined), read-out: inhibition zone, Bacillus Cereus, A) was 32 mm, the zone of inhibition at 10000 µg/mL (Bacillus Cereus; sub-column B (not defined), read-out: inhibition zone, Bacillus Cereus, B) was 37 mm and the zone of inhibition at 10000 µg/mL (Bacillus Cereus; sub-column C (not defined), read-out: inhibition zone, Bacillus Cereus, C) was 40 mm. For the same molecule, the zone of inhibition at 10000 µg/mL (Pseudomonas aeruginosa; sub-column A (not defined), read-out: inhibition zone, Pseudomonas aeruginosa, A) was 24 mm, the zone of inhibition at 10000 µg/mL (Pseudomonas aeruginosa; sub-column B (not defined), read-out: inhibition zone, Pseudomonas aeruginosa, B) was 34 mm and the zone of inhibition at 10000 µg/mL (Pseudomonas aeruginosa; sub-column C (not defined), read-out: inhibition zone, Pseudomonas aeruginosa, C) was 39 mm. The zone of inhibition at 10000 µg/mL (Escherichia coli; sub-column A (not defined), read-out: inhibition zone, Escherichia coli, A) was 39 mm, the zone of inhibition at 10000 µg/mL (Escherichia coli; sub-column B (not defined), read-out: inhibition zone, Escherichia coli, B) was 41 mm and the zone of inhibition at 10000 µg/mL (Escherichia coli; sub-column C (not defined), read-out: inhibition zone, Escherichia coli, C) was 46 mm.
